Values joined by “and” are separate entries in the source; they are usually repeats but may differ in a detail not shown here. Identical values can stand only once.
Test system: L3.6pl human pancreatic tumors
Assay: Therapy of L3.6pl human pancreatic tumors in nude mice
Format: in vivo, mouse
Conditions: CPT-11 100 mg/kg i.p. once a week +/− oral JBT 3002 (tablet) 0.05 mcg/dose
Description: Table 19 (A, B, C). Therapy of human pancreatic carcinoma liver metastasis. The pancreas of nude mice were injected with 1×10^6 viable human pancreatic cancer L3.6pl cells. […] This regimen was repeated on a weekly basis for 3 weeks. The mice were killed. Pancreatic tumors, liver metastases, and lymph node metastasis were quantified.

N-hexadecanol-S-[2(R)-3-diodecanoyloxypropyl]-L-cysteinyl-L-alanyl-D-isoglutaminyl-glycyl-taurine sodium salt [JBT3002]
Incidence LN met (31 days): 7/10
Incidence WT/PC (31 days): 3/10
Incidence liver met (31 days): 2/9
Tumor weight, Average (31 days): 706.22 mg
Tumor weight, Max (31 days): 981 mg
Tumor weight, Median (31 days): 733 mg
Tumor weight, Min (31 days): 362 mg
tumor weight (range) (31 days): (362-981) mg
Tumor weight, single animals (31 days after tumor cell injection, sodium salt): 862 mg and 871 mg and 981 mg and 621 mg and 362 mg and 733 mg and 559 mg and 820 mg and 547 mg
